{"source": "patent US20110251238A1", "about": "“PPAR AGONIST COMPOSITIONS AND METHODS OF USE” (BIOPHARMED, priority 2008, published 2011)", "key": {"[1]": {"test_system": "bloodstream forms of T. congolense STIB910", "details": "T. congolense STIB910, identical experimental conditions, Merschjohann et al. (2001); cited from earlier work"}, "[2]": {"test_system": "HT-22, an immortalized mouse hippocampal cell line", "assay": "Neuroprotection of HT-22 cells against toxic insults (calcein viability assay)", "assay_type": "cell-based", "protocol": "It is known (P. Aoun, 2003 Eur. J. Pharm. 472:65-71) that Peroxisome proliferator-activated receptors (PPARs) are involved in regulating many metabolic and inflammatory processes. The present invention explores the role of PPAR ligands in protecting neuronal cultures from toxic insults. For that purpose, the new PPAR agonists described in Example 1 were screened for their potential role as neuroprotective compounds. Experiments were performed using HT-22, an immortalized mouse hippocampal cell line, and SK-N-SH, a human neuroblastoma cell line. HT-22 was selected because it expresses PPARγ receptors. Cell viability against glutamate, hydrogen peroxide (H2O2), and serum deprivation insults was determined using a calcein assay. […] Additionally, compounds were protective even when administered simultaneously with glutamate, or for up to 8 h postglutamate insult.\nHT-22, an immortalized mouse hippocampal cell line, and SK-N-SH, a human neuroblastoma cell line, were used. HT-22 cells were obtained from David Schubert (Salk Institute, San Diego, Calif.). The HT-22 line was originally selected from HT-4 cells based on glutamate sensitivity. SK-N-SH cells were obtained from ATCC (Manassas, Va.). HT-22 and SK-N-SH cells were grown to confluency in Dulbecco's modified essential medium (DMEM) and RPMI-1640 media, respectively, and supplemented with 10% charcoal/dextran-treated fetal bovine serum (FBS) and […] gentamicin at 37° C. under 95% air/5% CO2. HT-22 cells were plated at a density of 50,000 cells/ml (5000 cells/well), and SK-N-SH cells were plated at a density of 120,000-150,000 cells/ml (12,000-15,000 cells/well) in 96-well plates. In most studies, wells were pretreated with PPAR ligands over a wide dose range at various times prior to being subjected to either glutamate, hydrogen peroxide, or serum deprivation insults. In some studies, the insults were applied prior to the addition of the PPAR ligand.\nThe following analogues were tested on the HT22 cell line for their neuroprotective effect against glutamate insult and for their anti-inflammatory activity on relevant, models including HT22 cell line."}, "[3]": {"test_system": "KB3 (epitheloid lung cancer) cell lines", "assay": "Cell growth inhibition (cytotoxicity), MTS assay, KB3 cell line", "assay_type": "cell-based", "details": "KB3; Table 3A; MTS assay, triplicate; read-out: KB3 IC50", "protocol": "Cell growth inhibition was determined by the MTS assay; the number of viable cells were proportional to the extent of formazan production in the presence or absence of drugs. […]"}, "[4]": {"test_system": "caspases 8", "assay": "Caspases 8 activation in HL60 cells (IEDT reagent)", "assay_type": "cell-based, human", "details": "48 hours, 1 μM, 0.1 μM and 0.01 μM", "text": "(§1) 7223, using standard commercially available diagnostic kits (Calbiochem, USA). Assay reagents used were DEVD for caspases 3/7, […] for caspases 8, and LEHD for caspases 9. Moreover, colchicine was used as reference compound that induces this activity of caspases."}, "[5]": {"test_system": "caspases 3/7", "assay": "Caspases 3/7 activation in HL60 cells (DEVD reagent)", "assay_type": "cell-based, human", "details": "48 hours", "text": "as §1"}, "[6]": {"test_system": "Host", "assay": "Growth inhibition, MTT colorimetric assay, Host", "assay_type": "cell-based", "details": "72 h; 3 days with drug; means of six values; unit inferred; read-out: IC50 Host", "in_short": "(§2)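 Growth inhibition: cells cultured with drug 3 days, then MTT colorimetric readout. Cytotoxic activity given as IC50.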"}, "[7]": {"test_system": "bloodstream forms of T. brucei and T. congolense", "assay": "Trypanocidal activity in vitro, Alamar Blue assay", "assay_type": "cell-based, Trypanosoma brucei and T. congolense", "details": "48 h total incubation", "in_short": "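Bloodstream-form trypanosomes exposed to compounds in H2O for 24 h, then Alamar Blue added for a further 24 h (48 h total). Absorbance read at 550 nm with 630 nm reference; duplicate wells, three repeats. HL-60 cytotoxicity run alongside: 43 h plus 5 h dye.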"}, "[8]": {"test_system": "B16-F10 (mouse melanoma)", "assay": "Growth inhibition, MTT colorimetric assay, B16F10", "assay_type": "cell-based", "details": "Mus musculus, B16-F10, 72 h; melanoma; 3 days with drug; means of six values; unit inferred; read-out: IC50 B16F10", "in_short": "(§3)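 Cells were cultured with compound for 3 days, and inhibition of proliferation was read by MTT colorimetric assay. Values are IC50, each the mean of six determinations with standard errors below 5% of the mean.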"}, "[9]": {"test_system": "KaKa", "assay": "Growth inhibition, MTT colorimetric assay, KaKa", "assay_type": "cell-based", "details": "72 h; 3 days with drug; means of six values; unit inferred; read-out: IC50 KaKa", "in_short": "as §2"}, "[10]": {"test_system": "SKMEL28 (human melanoma)", "assay": "Growth inhibition, MTT colorimetric assay, SKMEL-28", "assay_type": "cell-based", "details": "Homo sapiens, SK-MEL-28, 72 h; melanoma; 3 days with drug; means of six values; unit inferred; read-out: IC50 SKMEL-28", "in_short": "as §2"}, "[11]": {"test_system": "RhTP (rhabdomyosarcoma)", "assay": "Growth inhibition, MTT colorimetric assay, RhTp", "assay_type": "cell-based", "details": "72 h; 3 days with drug; means of six values; unit inferred; read-out: IC50 RhTp", "in_short": "as §2"}, "[12]": {"test_system": "caspases 9", "assay": "Caspases 9 activation in HL60 cells (LEHD reagent)", "assay_type": "cell-based, human", "details": "48 hours, 1 μM, 0.1 μM and 0.01 μM", "text": "as §1"}, "[13]": {"test_system": "U138 MG (human glioma)", "assay": "Growth inhibition, MTT colorimetric assay, U138", "assay_type": "cell-based", "details": "Homo sapiens, U138-MG, 72 h; glioma; 3 days with drug; means of six values; unit inferred; read-out: IC50 U138", "in_short": "as §3"}, "[14]": {"test_system": "GL19", "assay": "Growth inhibition, MTT colorimetric assay, GL19", "assay_type": "cell-based", "details": "GL19, 72 h; 3 days with drug; means of six values; unit inferred; read-out: IC50 GL19", "in_short": "as §2"}, "[15]": {"test_system": "U373 (human glioblastoma-astrocytoma)", "assay": "Growth inhibition, MTT colorimetric assay, U373", "assay_type": "cell-based", "details": "Homo sapiens, U373 MG, 72 h; glioma; 3 days with drug; means of six values; unit inferred; read-out: IC50 U373", "in_short": "as §3"}, "[16]": {"test_system": "bloodstream forms of T. brucei 427-221a", "details": "identical experimental conditions, Merschjohann et al. (2001); cited from earlier work"}}, "data": [{"smiles": "N=C(N)c1ccc(N=NNc2ccc(C(=N)N)cc2)cc1", "note": "[diminazene aceturate]", "values": [{"measurement": "IC50", "setting": "[1]", "value": 500, "unit": "nM"}]}, {"smiles": "Cc1ccc(CN(Cc2ccc(O)c3ncccc23)Cc2ccc(O)c3ncccc23)cc1", "note": "[BPM19,107, 5,5′-(4-(methyl)benzylazanediyl)bis(methylene)diquinolin-8-ol]", "values": [{"measurement": "neuroprotection from H2O2 insult", "setting": "[2]", "value": "dose-dependent neuroprotection"}, {"measurement": "neuroprotection from glutamate insult", "setting": "[2]", "value": "dose-dependent neuroprotection"}, {"measurement": "IC50", "setting": "[3]", "value": 3, "unit": "nM"}, {"measurement": "activation of caspases 8", "setting": "[4]", "value": "no effect"}, {"measurement": "activation of caspases 3/7", "setting": "[5]; 0.01 μM", "value": "neither BPM18,708 nor BPM19,107 has an effect"}, {"measurement": "activation of caspases 3/7", "setting": "[5]; 0.1 μM", "value": "strong effect"}, {"measurement": "activation of caspases 3/7", "setting": "[5]; 1 μM", "value": "strong effect"}, {"measurement": "IC50", "setting": "[6]", "value": 2460, "unit": "nM"}, {"measurement": "GI50", "setting": "[7]; 50% growth inhibition, read-out: GI50", "value": "310 ± 10", "unit": "nM"}, {"measurement": "MIC", "setting": "[7]; lowest concentration at which all cells were killed, read-out: MIC", "value": 1, "unit": "µM"}, {"measurement": "IC50", "setting": "[8]", "value": 88, "unit": "nM"}, {"measurement": "IC50", "setting": "[9]", "value": 710, "unit": "nM"}, {"measurement": "IC50", "setting": "[10]", "value": 4780, "unit": "nM"}, {"measurement": "IC50", "setting": "[11]", "value": 84, "unit": "nM"}, {"measurement": "activation of caspases 9", "setting": "[12]", "value": "no effect"}, {"measurement": "IC50", "setting": "[13]", "value": 81, "unit": "nM"}, {"measurement": "IC50", "setting": "[14]", "value": 1030, "unit": "nM"}, {"measurement": "IC50", "setting": "[15]", "value": 96, "unit": "nM"}]}, {"smiles": "Cc1ccc(C(=O)Nc2ccc(S(=O)(=O)O)c3cc(S(=O)(=O)O)cc(S(=O)(=O)O)c23)cc1NC(=O)c1cccc(NC(=O)Nc2cccc(C(=O)Nc3cc(C(=O)Nc4ccc(S(=O)(=O)O)c5cc(S(=O)(=O)O)cc(S(=O)(=O)O)c45)ccc3C)c2)c1", "note": "[suramin]", "values": [{"measurement": "IC50", "setting": "[16]", "value": 400, "unit": "nM"}]}]}
